# Columns and labels:
# Assay type in all cases: in vivo
# [1] = tested on: normotensive dogs anesthetized with pentobarbital sodium; experiment: Hypotensive effect on anesthetized dogs (intravenous); conditions: i.v.; for hypotensive effect in anesthetized dogs (in words): same conditions as Table II, dose under 100 μg/kg; for Hypotensive Effect Δ(mmHg): anesthetized dogs, mean value
# Protocol: Groups of three to four normotensive dogs anesthetized with pentobarbital sodium were used in the experiments. The test compounds were dissolved in a minimum amount of ethanol, and the solutions were administered intravenously in the vein cannulated with a polyethylene tube. The mean blood pressures in the carotid artery were recorded using a pressure transducer and a recorder. The hypotensive effect in Table II are a mean value obtained from at least three to four experiments.
# [2] = Test for acute toxicity (oral, rats); conditions: rat, in vivo, rats, 8 days
# Description: (§1) A suspension of a test compound in 0.5% CMC aqueous solution containing Tween 80 was orally administered to rats, and during 8 days the number of dead rats was counted.
# [3] = tested on: rats; experiment: Test for acute toxicity (oral, rats); conditions: for number of dead rats [drawing 15]: 8 days
# Description: as §1
# [4] = tested on: male spontaneously hypertensive rats (Wister Kyoto origin); experiment: Hypotensive effect on conscious spontaneously hypertensive rats (oral); conditions: Rattus norvegicus, tail-cuff method, read-out: pD30 (dose which decreases systolic blood pressure by 30 mmHg)
# Protocol: (b) Hypotensive effect on conscious spontaneously hypertensive rate
# The test compounds were orally administered to groups of four to five of male spontaneously hypertensive rats (Wister Kyoto origin) weighing about 300 g and aged 15 to 20 weeks. The systolic blood pressure was measured by the tail-cuff method using a plethysmograph.
SMILES,Hypotensive Effect Δ(mmHg) ([1]; dose 1.0 μg/kg),Hypotensive Effect Δ(mmHg) ([1]; dose 3.0 μg/kg),Hypotensive Effect Δ(mmHg) ([1]; dose 10 μg/kg),further results
"CCOC(=O)c1c(C)cc2nc(C)n(-c3ccccc3Cl)c(=O)c2c1C [3-(2-chlorophenyl)-6-ethoxycarbonyl-2,5,7-trimethyl-4(3H)-quinazolinone, reference compound]",,,,hypotensive effect in anesthetized dogs (in words) [1]: did not exhibit a hypotensive effect
"CCOC(=O)c1c(C)cc2c(c1C)c(=O)n(-c1ccccc1Cl)c(=O)n2CCN(CC)CC [3-(2-chlorophenyl)-6-ethoxycarbonyl-5,7-dimethyl-1-(2-(N,N-diethylamino)ethyl]-2,4(1H,3H)-quinazolinedione, reference compound]",,,,hypotensive effect in anesthetized dogs (in words) [1]: did not exhibit a hypotensive effect
"CCOC(=O)c1c(C)cc2nc(C)n(-c3ccccc3C(F)(F)F)c(=O)c2c1C [6-ethoxycarbonyl-3-[2-(trifluoromethyl)phenyl]-2,5,7-trimethyl-4(3H)-quinazoline, reference compound]",,,,hypotensive effect in anesthetized dogs (in words) [1]: did not exhibit a hypotensive effect
"CCOC(=O)c1c(C)cc2c(c1C)c(=O)n(-c1ccccc1C(F)(F)F)c(=O)n2CCN(CC)CC [6-ethoxycarbonyl-3-[2-(trifluoromethyl)phenyl]-5,7-dimethyl-1-[2-(N,N-diethylamino)ethyl]-2,4(1H,3H)-quinazolinedione, reference compound]",,,,hypotensive effect in anesthetized dogs (in words) [1]: did not exhibit a hypotensive effect
"CCOC(=O)c1c(C)cc2nc(COC(=O)NC)n(-c3ccccc3Cl)c(=O)c2c1C [Compound 1, 3-(2-chlorophenyl)-6-ethoxycarbonyl-5,7-dimethyl-2-(N-methylcarbamoyloxymethyl)-4(3H)-quinazolinone]",3,6,22,"Hypotensive Effect Δ(mmHg) ([1]; dose 30 μg/kg): 43 mmHg; Hypotensive Effect Δ(mmHg) ([1]; dose 100 μg/kg): 51 mmHg; LD50 at 192 h [2]: 2500 mg/kg; toxicity (in words) ([3]; acute, rats): very low; number of dead rats [drawing 15] ([3]; dose 1200 mg/Kg): 2/6; number of dead rats [drawing 15] ([3]; dose 1715 mg/Kg): 3/6; number of dead rats [drawing 15] ([3]; dose 2450 mg/Kg): 3/6; number of dead rats [drawing 15] ([3]; dose 3500 mg/Kg): 3/6; number of dead rats [drawing 15] ([3]; dose 5000 mg/Kg): 5/6; ED (30 mmHg) [4]: 2.8 mg/kg"
"CCOC(=O)c1c(C)cc2nc(COC(=O)NC(C)C)n(-c3ccccc3Cl)c(=O)c2c1C [Compound 2, 3-(2-chlorophenyl)-6-ethoxycarbonyl-5,7-dimethyl-2-(N-isopropylcarbamoyloxymethyl)-4(3H)-quinazolinone]",24,48,,ED (30 mmHg) [4]: 0.42 mg/kg
"CCOC(=O)c1c(C)cc2nc(COC(=O)N(C)C)n(-c3ccccc3Cl)c(=O)c2c1C.Cl [Compound 3, 3-(2-chlorophenyl)-2-(N,N-dimethylcarbamoyloxymethyl)-6-ethoxy-carbonyl-5,7-dimethyl-4(3H)-quinazolinone hydrochloride]",0,0,1,Hypotensive Effect Δ(mmHg) ([1]; dose 30 μg/kg): 6 mmHg; Hypotensive Effect Δ(mmHg) ([1]; dose 100 μg/kg): 20 mmHg
CCNC(=O)OCc1nc2cc(C)c(C(=O)OCC)c(C)c2c(=O)n1-c1ccccc1Cl [Compound 9],22,42,,ED (30 mmHg) [4]: 0.35 mg/kg
CCCNC(=O)OCc1nc2cc(C)c(C(=O)OCC)c(C)c2c(=O)n1-c1ccccc1Cl [Compound 10],10,25,,
CCCCNC(=O)OCc1nc2cc(C)c(C(=O)OCC)c(C)c2c(=O)n1-c1ccccc1Cl [Compound 12],10,25,,
CCOC(=O)c1c(C)cc2nc(COC(=O)NC(C)(C)C)n(-c3ccccc3Cl)c(=O)c2c1C [Compound 14],8,10,25,
CCOC(=O)c1c(C)cc2nc(COC(=O)NC(C)C)n(-c3ccccc3F)c(=O)c2c1C [Compound 18],5,10,28,
CCOC(=O)c1c(C)cc2nc(COC(=O)NC(C)C)n(-c3ccccc3Br)c(=O)c2c1C [Compound 19],20,35,,
CCOC(=O)c1c(C)cc2nc(COC(=O)NC(C)C)n(-c3ccccc3C)c(=O)c2c1C [Compound 23],8,25,,
CCOC(=O)c1c(C)cc2nc(COC(=O)NC(C)C)n(-c3ccccc3C(F)(F)F)c(=O)c2c1C [Compound 27],0,0,8,Hypotensive Effect Δ(mmHg) ([1]; dose 30 μg/kg): 18 mmHg; Hypotensive Effect Δ(mmHg) ([1]; dose 100 μg/kg): 25 mmHg
CCNC(=O)OCc1nc2cc(C)c(C(=O)OCC)c(C)c2c(=O)n1-c1ccccc1[N+](=O)[O-] [Compound 28],0,6,9,Hypotensive Effect Δ(mmHg) ([1]; dose 30 μg/kg): 25 mmHg
"COc1ccc(Cc2nccc3cc(OC)c(OC)cc23)cc1OC [papaverine, reference compound]",,,,hypotensive effect in anesthetized dogs (in words) [1]: did not exhibit a hypotensive effect

# From patent publication US4451467A, “4(3H)-Quinazolinone derivatives, process for production thereof, and pharmaceutical compositions comprising said compounds” (Ishikawa; Masayuki, priority 1981, dated 1984)
